From ChEMBL document CHEMBL1122855, “Antimalarial agents. 1. alpha-Santonin-derived cyclic peroxide as potential antimalarial agent” (1985)
Values after ≈ are worked out from the molar mass of the structure shown.

Tests used:
[1] = tested on: Mus musculus; experiment: In vitro antimalarial activity against chloroquine-resistant (Smith) isolates of Plasmodium falciparum at dose 160 mg/kg in mice (Mus musculus); format: functional
[2] = tested on: Mus musculus; experiment: In vivo toxicity against chloroquine-resistant (Smith) isolates of Plasmodium berghei in mice (Mus musculus); format: functional

SMILES | ED50 [1] [µg/mL] | Toxicity [2] [mg/kg]
CC1=C[C@H]2C[C@]3(C)CC[C@H]4[C@H](C)C(=O)O[C@@H]4C13OO2 (single isomer, unassigned) | 0.72859 (≈ 2.76 µM) | 640
C[C@@H]1CC[C@H]2[C@@H](C)C(=O)O[C@@H]3O[C@@]4(C)CC[C@@H]1[C@]32OO4 [ARTEMISININ] | <0.0034 | 
